{"source": "patent US20060270640A1", "about": "“Method of preventing, medicating, and/or treating hypocalcemia of domestic mammal” (Mercian Corporation, priority 2004, published 2006)", "key": {"[1]": {"details": "oral administration, high dose; cited from earlier work"}, "[2]": {"test": "Intravaginal 1,25-(OH)2D3 in raised cows: mineral (Ca, iP, Mg) concentrations in plasma (Example 2)", "type": "in vivo, cow", "method": "(§1) Hereinafter, the present invention will further be described with reference to Examples and Comparative Example. However, the present invention is not intended to be limited to them by any means. In the examples described below, a 1,25-(OH)2D3 concentration in plasma was determined using a radioimmunoassay kit (1,25-(OH)2D RIA kit, Immunodiagnostic Systems Limited, UK). The Ca concentrations, inorganic phosphorus (iP) concentrations, and magnesium (Mg) concentrations in plasma and urine were determined by orthocresolphthalein complexone (O-CPC), molybdenum (Mo), and xylidyl blue methods, respectively. A creatinine concentration in urine was determined by a Jaffe method. Calcium (Ca), inorganic phosphorus (iP), and magnesium (Mg) concentrations in urine were indicated in the ratios relative to creatinine (Cre) (Ca/Cre, iP/Cre, and Mg/Cre, respectively).\n(§2) For confirming the absorption in the vagina of 1,25-(OH)2D3 administered to the vaginal cavities of cows, biochemical changes of 1,25-(OH)2D3 and minerals in blood were observed after the intravaginal administration of 1,25-(OH)2D3 to cows.\n(§3) Six Holstein cows (3 to 6 months olds, 97 to 118 kg in body weights) that were clinically healthy were raised and domesticated for at least 1 week in the same fence by providing them with feed (1.56 kg of grass, 0.55 kg of formula feed, and 1.44 kg of alfalfahey cube in dried forms) having a daily mineral intake of 21 g of Ca, 13 g of P, and 4 g of Mg that satisfies requirements stipulated by NRC (National Research Council) on a daily basis and free water drinking.\n(§4) To each of five of the cows, 1,25-(OH)2D3 (crystal manufactured by Mercian Corporation dissolved in 99% ethanol to bring its concentration to 1 mg/mL and cryopreserved at −20° C. until just before use) was intravaginally administered at 1 μg per kg of body weight.\nIntravaginal administration was performed using a 14-gauge, 64 mm-long cannula with an indwelling needle for injection (Surflo, Terumo Co. Ltd., Tokyo) and a plastic pump (Top Plastic Syringe, Top Surgical Taiwan Corporation, Taiwan).\nTo the other cow, 3.0 mL of 99% ethanol was administered as a control.\nA heparinized blood sample was collected from a jugular vein immediately before administration (0 hour) and at 2, 6, 12, 24, 48, 72, and 96 hours after administration.\nThe biochemical value of blood was indicated as a means±standard deviation. For observing the effect of the intravaginal administration of 1,25-(OH)2D3, repeated measures analysis of variance was used. When the effect was significant, a statistical test was conducted by the Dunnett's multiple comparison between the value at 0 hour and each value after administration. The significant difference was set to P<0.05."}, "[3]": {"test": "Intravaginal 1,25-(OH)2D3 in raised cows: 1,25-(OH)2D3 concentration in plasma, RIA (Example 2)", "type": "in vivo, cow", "method": "as §1, §2, §3, §4\nIntravaginal administration was performed using a 14-gauge, 64 mm-long cannula with an indwelling needle for injection (Surflo, Terumo Co. Ltd., Tokyo) and a plastic pump (Top Plastic Syringe, Top Surgical Taiwan Corporation, Taiwan). […]"}, "[4]": {"test": "Dose-response test of 1,25-(OH)2D3: Ca/Cre, iP/Cre, Mg/Cre in urine (Example 3)", "type": "in vivo, cow", "details": "for iP/Cre in urine: vs immediately before administration", "method": "as §1\nThe dose-response test of 1,25-(OH)2D3 by an intravaginal administration route was performed with five 3 to 9-year-old ovariectomized Holstein cows having body weights of 616 to 804 kg as test animals.\nThe cows were hitched to a partition after and provided with 5.3 kg of timothy hay, 0.18 kg of alfalfa hay, 0.71 kg of beet pulp pellet, and 1.7 kg of commercially-available grain mix on a daily basis. The cows were measured on a DM basis and freely provided with water. A daily mineral intake was set to 48.4 g for calcium, 20.2 g of inorganic phosphorus, and 12.7 g for magnesium, which sufficiently exceeded the NRC recommendation.\nTo the five cows, 1,25-(OH)2D3 was respectively administered at 0.125, 0.25, 0.5, and 1.0 μg/kg (by body weight) as an intravaginal dose level and 1.0 μg/kg (by body weight) as an intravenous injection dose level at an interval of 2 weeks or more according to a 5×5 Latin square design.\nThe 1,25-(OH)2D3 (manufactured by Mercian Corporation) used was in the form of crystalline powder, which was dissolved in 99% ethanol at 200 μg/mL and cryopreserved at −20° C. until use.\nA drug composed of 5 mL of 20% ethanol solution containing 1,25-(OH)2D3 at 0.125, 0.25, 0.5, or 1.0 μg/kg (by body weight) was administered to a vaginal lumen using a Split Universal Sheath (IMV Int. CO., France) by a rectovaginal cavity method. The vulva was then bonded with an adhesive in order to prevent the 1,25-(OH)2D3 solution from being unintentionally excreted from the vaginal lumen. Intravenous administration was performed using a cannula (14-ga cannula for animals, manufactured by Nipro Medical Industries Ltd.) mounted in advance for the collection of a blood sample.\nUrine were collected by urethral catheterization simultaneously with the collection of blood samples from the cows that underwent the intravaginal administration of 1,25-(OH)2D3 at 0.125 and 1.0 μg/kg (by body weight) and the intravenous injection of 1,25-(OH)2D3at 1.0 μg/kg (by body weight), to determine creatinine, calcium, inorganic phosphorus, and magnesium concentrations in the urine. Plasma and urine samples were cryopreserved at −20° C. until analysis."}, "[5]": {"details": "0 hour, intravaginal 1 μg/kg, n=5"}}}
{"smiles": "C=C1/C(=C\\C=C2/CCC[C@]3(C)[C@@H]([C@H](C)CCCC(C)(C)O)CC[C@@H]23)C[C@@H](O)C[C@@H]1O", "note": "[1,25-(OH)2D3, 1,25-dihydroxyvitamin D3]", "values": [{"measurement": "proportional rise in the AUC in serum with an increase in a dose", "setting": "[1]", "value": "not observed"}, {"measurement": "Mg in plasma", "setting": "[2]; [5]", "value": "2.1 ± 0.1", "unit": "mg/dL"}, {"measurement": "iP in plasma", "setting": "[2]; [5]", "value": "7.3 ± 0.5", "unit": "mg/dL"}, {"measurement": "iP in plasma", "setting": "[2]; 6 hours after intravaginal 1 μg/kg, P<0.05 vs 0 hour", "value": "8.1 ± 0.8", "unit": "mg/dL"}, {"measurement": "iP in plasma", "setting": "[2]; 24 hours (start of 24 to 96 hours) after intravaginal 1 μg/kg, P<0.01", "value": "9.1 ± 0.7", "unit": "mg/dL"}, {"measurement": "Mg in plasma", "setting": "[2]; 24 hours after intravaginal 1 μg/kg, P<0.01 vs 0 hour", "value": "1.8 ± 0.1", "unit": "mg/dL"}, {"measurement": "Ca concentration in plasma, maximum value", "setting": "[2]; 24 hours after intravaginal 1 μg/kg, n=5, significantly (P<0.01) high at 12 to 72 hours", "value": "11.96 ± 0.7", "unit": "mg/dL"}, {"measurement": "Mg in plasma", "setting": "[2]; 48 hours after intravaginal 1 μg/kg, P<0.01 vs 0 hour", "value": "1.8 ± 0.1", "unit": "mg/dL"}, {"measurement": "iP in plasma", "setting": "[2]; 96 hours (end of 24 to 96 hours) after intravaginal 1 μg/kg, P<0.01", "value": "8.6 ± 0.6", "unit": "mg/dL"}, {"measurement": "Ca concentration in plasma", "setting": "[2]; before administration, intravaginal 1 μg/kg, n=5", "value": "10.4 ± 0.4", "unit": "mg/dL"}, {"measurement": "concentration at 6 h", "setting": "[3]; female, Holstein, bovine, plasma, other: intravaginal, 6 hours after intravaginal 1 μg/kg, n=5, p<0.01 vs 0 hour", "value": "1.97 ± 1.14", "unit": "ng/mL"}, {"measurement": "concentration at 0 h", "setting": "[3]; female, Holstein, bovine, plasma, other: intravaginal, before administration (0 hour), intravaginal 1 μg/kg, n=5 raised cows, mean±SD", "value": "0.0883 ± 0.0203", "unit": "ng/mL"}, {"measurement": "absorption from the vaginal wall of a cow", "setting": "[3]; intravaginal 1 μg/kg, sudden rise in plasma at 2 hours", "value": "confirmed"}, {"measurement": "Ca/Cre, iP/Cre and Mg/Cre in urine", "setting": "[4]; intravaginal 0.125 μg/kg", "value": "no influence"}, {"measurement": "Ca/Cre in urine", "setting": "[4]; via the vagina 1.0 μg/kg, at 24 hours after administration", "value": "significantly rose"}, {"measurement": "Mg/Cre in urine", "setting": "[4]; via the vagina 1.0 μg/kg, from 6 hours to 12 hours after administration", "value": "significantly high"}, {"measurement": "iP/Cre in urine", "setting": "[4]; via the vagina 1.0 μg/kg, from 48 hours to 120 hours", "value": "significantly high"}, {"measurement": "Mg/Cre in urine", "setting": "[4]; via the vein 1.0 μg/kg, at 6 hours after administration", "value": "significantly high"}, {"measurement": "Ca/Cre in urine", "setting": "[4]; via the vein 1.0 μg/kg, at 12 hours and 24 hours after administration", "value": "significantly rose"}, {"measurement": "iP/Cre in urine", "setting": "[4]; via the vein 1.0 μg/kg, from 72 hours to 120 hours", "value": "significantly high"}]}
